According to PMC11726677, “Eradication of Therapy-Resistant Cancer Stem Cells by Novel Telmisartan Derivatives” (Journal of Medicinal Chemistry, 2024):
“And” between values parts separate entries of the source, which are not always exact repeats. Equal values may be shown once.

Tests used:
[1] = test system: K562-R cells; test: Metabolic activity of K562-R cells, compounds alone (modified MTT assay); assay type: cell-based, human; details: imatinib 1 μM, 72 h; compared to the 100% solvent control
[2] = test system: human CML K562-R xenograft; test: Efficacy in human CML K562-R xenograft model; assay type: in vivo, female NOD/SCID mice; parameters: % T/C (treatment/control) / % TGI (tumor growth inhibition): concentration or dose not given beside the values; details: for % TGI (tumor growth inhibition): vs vehicle control
Procedure: The animals were checked daily for humane end points. Body weight was measured and recorded daily after dosing.
The % T/C value, defined as the ratio of the mean tumor volume for the treated versus control group, was calculated as % T/C = (Tn/Cn) × 100%; whereas Tn: denotes mean tumor volume of the treated group on day n, and Cn: denotes mean tumor volume of the control group on day n. The optimal value is the minimal % T/C ratio, which reflects the maximal tumor growth inhibition achieved.
TGI (Tumor growth inhibition) was calculated by the following formula [drawing 1] [drawing 2]
Whereas: Tn: denotes the mean tumor volume of the treated group on day n; T1: denotes the mean tumor volume of the treated group on day 1; Cn: denotes the mean tumor volume of the vehicle control group on day n; and C1: denotes the mean tumor volume of the vehicle control group at day 1.

[3] = Body weight / tolerability in the K562-R xenograft study; details: 7c 10 mg/kg, imatinib 50 mg/kg, PO QD × 30 days
[4] = test system: A2780 V SP cells; test: Chemosensitizing to paclitaxel: metabolic activity of A2780 V SP cells (MTT); assay type: cell-based, human; details: compound 10 μM + PTX 10 nM, 72 h
Procedure: (§1) The chemosensitizing efficacy was investigated in the ovarian and prostate cancer cell lines using the above-described metabolic activity assay. Paclitaxel (PTX) served as a reference (CTR) in A2780 V SP and IGROV-1 SP cells and docetaxel (DTX) in PC3-DR and D145-DR cells.
(§2) COS-7 (2 × 10^3 cells per well), IGROV-1 SP (2.5 × 10^3 cells per well), A2780 V SP (1.5 × 10^3 cells per well), PC3-DR (4 × 10^3 cells per well), and DU145-DR (3 × 10^3 cells per well) cells were seeded in 96-well plates in triplicates and after 24 h, the compounds were added at the respective concentrations. K562-R and K562 cells (2 × 10^4 cells per well), were treated with the compounds 2 h after seeding. […] A modified MTT colorimetric assay (EZ4U kit, Biomedica) was used to determine the metabolic activity of the tested cells, according to the manufacturer’s instructions. Absorbance was measured and the optical density of the respective FCS-containing medium and of the substrate was subtracted to exclude nonspecific staining. Metabolic activity in the absence of the compounds (CTR, DMSO) was set to 100% as reference.

[5] = test system: PC3-DR cells (ABCB1+); test: SP analysis (DCV, flow cytometry) in PC3-DR cells; assay type: cell-based, human; details: 10 μM
Description: (§3) In recent studies, we described the side population (SP) phenotype as a marker that defines a heterogeneous cellular compartment with stem cell-characteristics in various cancer cell lines derived from solid tumors, such as ovarian cancer, breast cancer, and lung cancer.[26],[27]

[6] = test system: MCF7 cells (ABCG2+); test: SP analysis (DCV, flow cytometry) in MCF7 cells; assay type: cell-based, human; details: MCF7, 10 μM
Description: as §3

[7] = target: T1, ABCB1 transporter in K562-R cells (Homo sapiens, UniProt P08183); test: Side population (SP) analysis, DCV staining, flow cytometry; details: 10 μM
Procedure: (§7) SP analyses were performed as previously described[45] on a LSRFortessa flow cytometer (BD Biosciences, Vienna, Austria). Briefly, 1 × 10^6 cells/mL were stained with 10 μM Vybrant DyeCycleTM Violet (DCV; Molecular Probes, Eugene, OR) in the presence or absence of the investigated compounds for 90 min at 37 °C. […] Subsequently, the cells were washed and immediately analyzed using flow cytometry. The FlowJo 9.6 software was used for data analyses (Tree Star Software, Ashland, CA).

[8] = test system: STAT5; test: Jess Simple Western immunoassay of STAT5/pSTAT5 in A2780 V SP cells; assay type: cell-based, human; details: 10 μM, 72 h
Procedure: (§4) The impact of STAT5 activation on the mode of action was investigated in selected solid tumor cell lines as well.
(§5) Protein extracts were prepared as previously described.[44] Protein expression was determined using the capillary-based Jess Simple Western detection system (ProteinSimple, BioTechne) according to the manufacturer’s instructions at default settings. […] Horseradish peroxidase (HRP)-conjugated secondary antirabbit antibody, which was included in the Jess Detection Module kit, was used. Data analysis was conducted using Compass for Simple Western 4.0 software (ProteinSimple, BioTechne).

[9] = test system: STAT5; test: Jess Simple Western immunoassay of STAT5/pSTAT5 in A549 cells; assay type: cell-based, human; details: A549, 10 μM, 72 h
Procedure: as §4, §5

[10] = test system: K562-R cells; test: Chemosensitizing: metabolic activity of K562-R cells cotreated with imatinib (modified MTT assay); assay type: cell-based, human; details: 72 h
Procedure: (§6) The potential reduction in cell viability was determined using the modified MTT assay.
conc. 10 to 0.5 μM) over 72 h (Figure 3D).
as §2

[11] = test system: A549 cells (ABCC1+); test: SP analysis (DCV, flow cytometry) in A549 cells; assay type: cell-based, human; details: A549, 10 μM
Description: as §3

[12] = test system: STAT5; test: Jess Simple Western immunoassay of STAT5/pSTAT5 in IGROV-1 SP cells; assay type: cell-based, human; details: 10 μM, 72 h; for STAT5 protein expression: IGROV1 SP
Procedure: as §4, §5

[13] = test system: STAT5; test: Jess Simple Western immunoassay of STAT5/pSTAT5 in K562-R cells; assay type: cell-based, human; details: 4 μM + imatinib 1 μM, 6 h
Procedure: In the next step, the effects of the compounds (4 μM) on STAT5 in K562-R cells were examined.
as §5

[14] = test system: IGROV-1 SP cells (ABCB1+); test: SP analysis (DCV, flow cytometry) in IGROV-1 SP cells; assay type: cell-based, human; details: 10 μM
Description: as §3

[15] = test system: ABCB1; test: Jess Simple Western immunoassay of ABCB1 expression in K562-R cells; assay type: cell-based, human; details: 4 μM, 72 h
Procedure: as §5

[16] = test system: DU145-DR cells (ABCB1+); test: SP analysis (DCV, flow cytometry) in DU145-DR cells; assay type: cell-based, human; details: 10 μM
Description: as §3

[17] = test system: A2780 V SP cells (ABCB1+); test: SP analysis (DCV, flow cytometry) in A2780 V SP cells; assay type: cell-based, human; details: 10 μM
Description: as §3

[18] = test system: IGROV-1 SP cells; test: Chemosensitizing to paclitaxel: metabolic activity of IGROV-1 SP cells (MTT); assay type: cell-based, human; details: compound 10 μM + PTX 10 nM, 72 h
Procedure: as §1, §2

[19] = test system: STAT5; test: Jess Simple Western immunoassay of STAT5/pSTAT5 in MCF7 cells; assay type: cell-based, human; details: MCF7, 10 μM, 72 h
Procedure: as §4, §5

[20] = test system: ABCB1; parameters: method as in Weiss et al. 38; details: ref Weiss et al. 38; cited from earlier work
[21] = test system: DU145-DR cells; test: Chemosensitizing to docetaxel: metabolic activity of DU145-DR cells (MTT); assay type: cell-based, human; details: compound 10 μM + DTX 12.5 nM, 72 h
Procedure: as §1, §2

[22] = not told; cited from earlier work
[23] = test system: primary human CML patient samples; test: Colony forming cell (CFC) assay, primary CML patient samples; assay type: cell-based; details: together with 1 μM of imatinib, once at the beginning of the 14 day assay; compound 10 μM
Description: Frozen peripheral blood mononuclear cells (PBMC) from TKI naïve CML patients and healthy controls were used for the CFC assay as described previously.[46] Briefly, thawed cells were resuspended a semisolid medium (Enriched MethocCult H4435, Stem Cell Technologies) supplemented with the respective compounds and cultured in small culture dishes for 2 weeks. Colonies were counted using an inverted microscope.

[24] = parameters: method as in PMID 32759366; details: rat hepatocytes ref 30; cited from earlier work
[25] = test system: PC3-DR cells; test: Chemosensitizing to docetaxel: metabolic activity of PC3-DR cells (MTT); assay type: cell-based, human; details: compound 10 μM + DTX 12.5 nM, 72 h
Procedure: as §1, §2

[26] = target: T1, ABCB1 transporter in K562-R cells; details: 90 min, 10 μM
Procedure: as §7

[27] = test system: K562-R cells; test: Metabolic activity of K562-R cells, compounds alone (modified MTT assay); assay type: cell-based, human; details: 10 μM, 72 h, without imatinib; vehicle control = 100%
Procedure: as §6
First, the compounds (10 μM) were applied alone to evaluate their effects per se.
as §2

[28] = parameters: method as in PMID 23054986; details: cited from earlier work

T1 sequence (P08183 whole entry): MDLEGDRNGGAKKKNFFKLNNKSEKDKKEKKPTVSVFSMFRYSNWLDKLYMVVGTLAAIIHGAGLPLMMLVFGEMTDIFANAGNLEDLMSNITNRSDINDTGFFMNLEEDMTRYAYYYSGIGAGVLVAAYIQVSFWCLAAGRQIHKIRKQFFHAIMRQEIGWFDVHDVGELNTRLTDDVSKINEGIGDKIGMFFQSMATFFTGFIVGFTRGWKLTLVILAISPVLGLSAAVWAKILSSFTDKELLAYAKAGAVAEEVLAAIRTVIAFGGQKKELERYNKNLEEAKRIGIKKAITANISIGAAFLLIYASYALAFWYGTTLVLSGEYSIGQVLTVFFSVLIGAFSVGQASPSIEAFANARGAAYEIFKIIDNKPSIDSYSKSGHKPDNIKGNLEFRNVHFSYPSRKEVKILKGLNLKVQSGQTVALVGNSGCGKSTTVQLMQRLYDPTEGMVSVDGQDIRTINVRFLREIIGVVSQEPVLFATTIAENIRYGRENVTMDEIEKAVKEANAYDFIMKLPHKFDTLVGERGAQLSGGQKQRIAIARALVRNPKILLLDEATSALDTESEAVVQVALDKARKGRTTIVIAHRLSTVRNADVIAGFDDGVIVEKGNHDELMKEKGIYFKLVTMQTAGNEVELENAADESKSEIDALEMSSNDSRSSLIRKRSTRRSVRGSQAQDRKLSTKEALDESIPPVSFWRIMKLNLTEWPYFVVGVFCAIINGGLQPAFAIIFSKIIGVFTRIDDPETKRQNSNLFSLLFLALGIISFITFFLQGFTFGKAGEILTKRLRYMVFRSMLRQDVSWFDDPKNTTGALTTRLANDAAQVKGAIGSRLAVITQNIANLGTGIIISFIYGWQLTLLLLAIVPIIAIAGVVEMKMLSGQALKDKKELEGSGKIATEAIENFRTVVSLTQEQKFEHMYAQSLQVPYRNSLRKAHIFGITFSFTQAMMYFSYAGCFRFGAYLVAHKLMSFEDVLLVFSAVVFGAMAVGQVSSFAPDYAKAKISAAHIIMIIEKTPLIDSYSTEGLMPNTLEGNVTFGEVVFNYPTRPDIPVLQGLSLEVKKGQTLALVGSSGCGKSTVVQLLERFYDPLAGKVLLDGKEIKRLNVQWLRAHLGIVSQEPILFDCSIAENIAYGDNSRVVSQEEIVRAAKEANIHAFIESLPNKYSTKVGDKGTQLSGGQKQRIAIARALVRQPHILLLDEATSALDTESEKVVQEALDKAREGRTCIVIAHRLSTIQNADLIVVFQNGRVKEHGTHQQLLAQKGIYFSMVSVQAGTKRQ

## Cc1ccc(NC(=O)c2ccc(CN3CCN(C)CC3)cc2)cc1Nc1nccc(-c2cccnc2)n1 [Imatinib, imatinib, reference compound]
[1]
  metabolic activity of K562-R cells, imatinib alone: 73%
[2]; Day 5
  % TGI (tumor growth inhibition): 76%
[2]; Day 8
  % TGI (tumor growth inhibition): 54%
[2]; Day 12
  % TGI (tumor growth inhibition): 50%
[2]; Day 15
  % TGI (tumor growth inhibition): 66%
[2]; Day 19
  % TGI (tumor growth inhibition): 57%
[2]; Day 22
  % TGI (tumor growth inhibition): 57%
[2]; Day 26
  % TGI (tumor growth inhibition): 56%
[2]; Day 29
  % TGI (tumor growth inhibition): 55%
[2]; Day 33
  % TGI (tumor growth inhibition): 59%
[2]; harvested on day 33, animals No. 1–7
  Tumor Weight, individual animal: 4.442 g and 0.194 g and 0.080 g and 0.082 g and 0.351 g and 3.076 g and 0.081 g
[2]; harvested on day 33, n = 7
  Tumor Weight, group mean: 1.200 g
[3]
  tolerability: well tolerated

## CCCc1nc2ccccc2n1Cc1ccc(-c2ccc(C(N)=O)cc2)cc1 [6c, 4′-((2-Propyl-1H-benzo[d]imidazole-1-yl)methyl)-[1,1′-biphenyl]-4-carboxamide]
[4]
  chemosensitizing to PTX therapy: particularly sensitized
[5]
  effect on SP phenotype: effectively targeted the SP phenotype
[6]
  effect on SP phenotype: nearly inactive
[7]
  effect on SP phenotype / ABCB1 activity: efficiently reduced the ABCB1 activity
  relation of SP and NSP: about 50%
[8]
  phosphorylation status of STAT5: efficiently repressed the phosphorylation status of STAT5
[9]
  phosphorylation status of STAT5: efficiently repressed the phosphorylation status of STAT5
[10]; K562-R, + imatinib 1 μM, read-out: SC50 (drug concentration eliciting 50% of the maximum sensitizing effect)
  EC50: 1490 nM
[10]; compound 10 μM + imatinib 1 μM
  metabolic activity of K562-R cells, combination with imatinib: 8–24%
[11]
  effect on SP phenotype: nearly inactive
[12]
  STAT5 protein expression: significantly suppressed STAT5
[12]; IGROV-1 SP
  phosphorylation status of STAT5: efficiently repressed the phosphorylation status of STAT5
[13]
  phosphorylation of STAT5: marked repression of the STAT5 phosphorylation
[14]
  effect on SP phenotype: effectively targeted the SP phenotype
[15]
  ABCB1 protein expression: none of the compounds abrogated the ABCB1 protein expression
[16]
  effect on SP phenotype: effectively targeted the SP phenotype
[17]
  effect on SP phenotype: effectively targeted the SP phenotype
[18]
  viability / antimetabolic effect in combination with PTX: increased the antimetabolic effect of PTX
[19]
  phosphorylation status of STAT5: efficiently repressed the phosphorylation status of STAT5

## CCCc1nc2c(C)cc(-c3nc4ccccc4n3C)cc2n1Cc1ccc(-c2ccccc2C(=O)O)cc1 [7a, telmisartan]
[4]
  chemosensitizing to PTX therapy: least active chemosensitizer
[5]
  effect on SP phenotype: only modestly affected
[6]
  effect on SP phenotype: significantly inhibited the SP phenotype
[20]
  inhibition of ABCB1: impeded ABCB1
[21]
  chemosensitizing to DTX (antimetabolic activity): did not significantly reduce the metabolic activity
[22]
  apparent permeability coefficient (Papp): 29 10^–6 cms^–1
[10]; compound 8 μM + imatinib 1 μM
  metabolic activity of K562-R cells, combination with imatinib: 55%
[10]; compound 10 μM + imatinib 1 μM
  metabolic activity of K562-R cells, combination with imatinib: 34–58%
[11]
  effect on SP phenotype: significantly inhibited the SP phenotype
[12]
  STAT5 protein expression: significantly suppressed STAT5
[23]
  number of colonies (CFC): virtually ineffective
[24]
  CLint: about 23 μL/min/10^6 cells
[14]
  effect on SP phenotype: only modestly affected
[25]
  chemosensitizing to DTX (antimetabolic activity): only marginally increased the antimetabolic activity of DTX
[16]
  effect on SP phenotype: only modestly affected
[26]
  percentage of cells within SP gate: 76.0%
[17]
  effect on SP phenotype: only modestly affected
[27]
  metabolic activity of K562-R cells, compound alone: inactive
[18]
  viability / antimetabolic effect in combination with PTX: increased the antimetabolic effect of PTX
[28]
  reported aqueous solubility: 9.9 µg/mL
